Test results from ChEMBL document CHEMBL1201862, “PubChem BioAssay data set” (2004).
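Step 1: Grow cells in 96-well plates. Step 2: Expose to compound for 48 hours at 5 concentrations. Step 3: Interpolate endpoints linearly; if unreached, use highest concentration. The concentration for 50% growth inhibition is given as GI50.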 Active and inactive are the calls of the source. Rule as the data show it: active = GI50 up to about 1.1 µM and inactive = higher.

Legend:
Test in all cases: growth of human tumour cells (NCI), 48 h
NCI-H226 = system: NCI-H226
SF-295 = system: SF-295
OVCAR-5 = system: OVCAR-5
OVCAR-3 = system: OVCAR-3
HOP-62 = system: HOP-62
MDA-MB-435 = system: MDA-MB-435
SK-MEL-28 = system: SK-MEL-28
Hs-578T = system: Hs-578T
SN12C = system: SN12C
OVCAR-8 = system: OVCAR-8
MDA-N = system: MDA-N
PC-3 = system: PC-3
HCT-116 = system: HCT-116
HCC 2998 = system: HCC 2998
T47D = system: T47D
OVCAR-4 = system: OVCAR-4
RPMI-8226 = system: RPMI-8226
COLO 205 = system: COLO 205
A498 = system: A498
IGROV-1 = system: IGROV-1

## CC(Oc1ccccc1Cl)C(=O)NN1C(=O)CC(=O)N(c2ccccc2)C1=S (stereo not given)
NCI-H226
  GI50: 38.6 µM (inactive)
SF-295
  GI50: 39.1 µM (inactive)
OVCAR-5
  GI50: > 100 µM (inactive)
OVCAR-3
  GI50: 38 µM (inactive)
HOP-62
  GI50: 46.7 µM (inactive)
MDA-MB-435
  GI50: 42.6 µM (inactive)
SK-MEL-28
  GI50: 88.3 µM (inactive)
Hs-578T
  GI50: > 100 µM (inactive)
SN12C
  GI50: > 100 µM (inactive)
OVCAR-8
  GI50: 41.4 µM (inactive)
MDA-N
  GI50: 82.2 µM (inactive)
PC-3
  GI50: 40.8 µM (inactive)
HCT-116
  GI50: 34.9 µM (inactive)
HCC 2998
  GI50: 82.2 µM (inactive)
T47D
  GI50: 31.9 µM (inactive)
OVCAR-4
  GI50: 54 µM (inactive)
RPMI-8226
  GI50: 47.8 µM (inactive)
COLO 205
  GI50: 32.2 µM (inactive)
A498
  GI50: 22.3 µM (inactive)
IGROV-1
  GI50: 52.6 µM (inactive)

## Cn1c2ccccc2c(=O)c2c(O)cc3c(c21)CC(C1(C)CO1)O3 (stereo not given)
NCI-H226
  GI50: 13.3 µM (inactive)
SF-295
  GI50: 9.44 µM (inactive)
OVCAR-5
  GI50: 6.53 µM (inactive)
OVCAR-3
  GI50: 3.61 µM (inactive)
HOP-62
  GI50: 3.15 µM (inactive)
MDA-MB-435
  GI50: 1.64 µM (inactive)
SK-MEL-28
  GI50: 2.79 µM (inactive)
Hs-578T
  GI50: 2 µM (inactive)
SN12C
  GI50: 1.42 µM (inactive)
OVCAR-8
  GI50: 0.966 µM (active)
MDA-N
  GI50: 1.38 µM (inactive)
PC-3
  GI50: 3.37 µM (inactive)
HCT-116
  GI50: 0.935 µM (active)
HCC 2998
  GI50: 1.79 µM (inactive)
T47D
  GI50: 11.5 µM (inactive)
OVCAR-4
  GI50: 8.83 µM (inactive)
RPMI-8226
  GI50: 2.82 µM (inactive)
COLO 205
  GI50: 6.1 µM (inactive)
A498
  GI50: 11.2 µM (inactive)
IGROV-1
  GI50: 5.87 µM (inactive)

## CC(C)/C(Cl)=N/OC(=O)Nc1cccc(C(F)(F)F)c1
NCI-H226
  GI50: 12.5 µM (inactive)
SF-295
  GI50: 18.3 µM (inactive)
OVCAR-5
  GI50: 18.9 µM (inactive)
OVCAR-3
  GI50: 3.84 µM (inactive)
HOP-62
  GI50: 18.1 µM (inactive)
MDA-MB-435
  GI50: 11.8 µM (inactive)
SK-MEL-28
  GI50: 5.45 µM (inactive)
Hs-578T
  GI50: 9.55 µM (inactive)
SN12C
  GI50: 7.1 µM (inactive)
OVCAR-8
  GI50: 14.5 µM (inactive)
MDA-N
  GI50: 10.6 µM (inactive)
PC-3
  GI50: 16.2 µM (inactive)
HCT-116
  GI50: 8.2 µM (inactive)
HCC 2998
  GI50: 15.8 µM (inactive)
T47D
  GI50: 4.1 µM (inactive)
OVCAR-4
  GI50: 7.05 µM (inactive)
RPMI-8226
  GI50: 1.56 µM (inactive)
COLO 205
  GI50: 2.07 µM (inactive)
A498
  GI50: 18.7 µM (inactive)
IGROV-1
  GI50: 13.4 µM (inactive)
